Assay [1] in a line: Displacement (competitive) fluorescence titration, XCage^8+ displacing ExBox^4+. The conditions noted are these: toward Porp-2H and Porp-Zn; water. The assay is classed as binding. On the procedure:
The changes in optical properties upon porphyrin encapsulation enable a facile study of the binding events. Fluorescence titrations of Porp-2H and Porp-Zn with ExBox^4+ yielded directly their binding constants in water. Since the binding affinities for XCage^8+ with Porp-2H and Porp-Zn are too high to be determined directly, competitive titrations were performed by displacing ExBox^4+ with XCage^8+ from the complex Porp-2H(Zn)⊂ExBox^4+. The binding affinities (Table 1) between ExBox^4+ and the two porphyrins are in the order of 10^7 M^−1. […] The samples were equilibrated for 6 h prior to the fluorescence titration studies. […]
Displacement fluorescence titration experiments: The displacement of porphyrins from Porp-2H⊂ExBox^4+ or Porp-Zn⊂ExBox^4+ by XCage^8+ to form Porp-2H⊂XCage^8+ or Porp-Zn⊂XCage^8+ regenerates the fluorescence emission of porphyrin, and the turn-on fluorescence was monitored as the signals to track the formation of the porphyrin inclusion complexes with XCage^8+. […] The samples were equilibrated at room temperature for 6 h, and the fluorescence intensity of each sample was recorded. The average fluorescence intensity of the three sets samples was plotted against the concentration of XCage^8+ to generate the binding isotherm, which was fitted by a displacement binding model^S15 to calculate the binding constant Ka using Origin Lab 8.6 software^S16.

Assay [2] can be described thus: Isothermal titration calorimetry, single injection, XCage^8+. The assay is classed as binding. Particulars: toward Porp-2H and Porp-Zn. On the procedure: Since the high binding affinity and aggregation of the two porphyrins prevent the accurate measurement of binding constants by isothermal titration calorimetry (ITC), a single injection experiment was performed in order to determine the binding enthalpy. The Gibbs free energy of the receptor-substrate complexation was estimated directedly from the corresponding fluorescent titrations, providing a value for TAS. Compared with ExBox^4+, the binding enthalpies of XCage^8+ are in the range of 7-8 kcal mol^−1 larger, a major contributing factor to the enhanced affinity.
Isothermal titration calorimetry: Isothermal titration was performed by TA Nano Isothermal Titration Calorimeter at 25° C. A Hastelloy cell was used with an active cell volume 190 μL. The stirring speed was set at 150 rpm. The solutions of receptors and substrates were prepared in Milli-Q water and allowed to equilibrate overnight if necessary. The aggregation of porphyrins and their high affinity binding prevented the accurate determination of binding constants, we thus only evaluated the binding enthalpy by single injection method.^S17

Each structure is given as a SMILES string.

For the compound `c1cc2ccc1C[n+]1ccc(cc1)-c1cc3cc(c1)-c1cc4cc(c1)-c1cc[n+](cc1)Cc1ccc(cc1)C[n+]1ccc(cc1)-c1cc(cc(c1)-c1cc(cc(c1)-c1cc[n+](cc1)Cc1ccc(cc1)C[n+]1ccc-3cc1)-c1cc[n+](cc1)C2)-c1cc[n+](cc1)Cc1ccc(cc1)C[n+]1ccc-4cc1` [XCage^8+], the “enhancement in the binding affinities compared with ExBox^4+” value in assay [1] was around 1000 fold. The “binding enthalpies larger compared with ExBox^4+” value in assay [2] fell in the range of 29 to 33 kJ/mol.

For the origin of these results see patent US12084579B2, “Cyclophane-sustained high performance porphyrins” (Northwestern University, priority 2020, dated 2024).
